Data from patent US10479780B2, “Aminopyrazole derivatives” (Chugai Seiyaku Kabushiki Kaisha, priority 2015, dated 2019).
Where two headings read alike, the source gives them in different places.

Legend:
Assay type in all cases: biochemical
human Yes1 enzyme = biological target: T1, human Yes1 enzyme (Homo sapiens, UniProt P07947); assay: Yes1 enzyme inhibitory activity (time-resolved fluorometry, biotinylated peptide phosphorylation); details: read-out: YES_IC50
T1 construct: made in house
Outline: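 Inhibition was expressed against a compound-free control to give IC50, using TR-FRET read-out (Eu-cryptate anti-pTyr antibody, streptavidin-XL665).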

human Src enzyme = biological target: T2, human Src enzyme (Homo sapiens, UniProt P12931); assay: Src enzyme inhibitory activity (time-resolved fluorometry, biotinylated peptide phosphorylation); details: read-out: SRC_IC50
T2 construct: purchased Carna Biosciences, Inc. 08-173
T2 sequence (P12931 whole entry): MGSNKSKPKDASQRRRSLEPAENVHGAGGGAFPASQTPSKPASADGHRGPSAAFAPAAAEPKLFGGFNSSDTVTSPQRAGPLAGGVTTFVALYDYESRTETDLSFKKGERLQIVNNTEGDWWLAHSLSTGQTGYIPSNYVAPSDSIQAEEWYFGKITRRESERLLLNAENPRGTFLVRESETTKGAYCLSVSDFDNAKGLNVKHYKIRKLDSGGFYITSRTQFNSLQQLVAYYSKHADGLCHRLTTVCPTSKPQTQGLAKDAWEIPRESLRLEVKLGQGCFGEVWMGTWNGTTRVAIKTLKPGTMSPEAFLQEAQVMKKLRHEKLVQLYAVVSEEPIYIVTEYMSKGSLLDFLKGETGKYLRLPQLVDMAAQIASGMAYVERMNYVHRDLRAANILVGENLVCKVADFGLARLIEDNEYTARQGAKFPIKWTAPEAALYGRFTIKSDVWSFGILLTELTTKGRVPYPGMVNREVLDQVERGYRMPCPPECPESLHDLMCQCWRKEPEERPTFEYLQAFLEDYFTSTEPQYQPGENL
Outline: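 Compounds were tested for blocking tyrosine phosphorylation of a biotinylated peptide substrate by recombinant human Src. Phosphorylated product was quantified by time-resolved fluorometry using europium cryptate and XL665 conjugates, and IC50 was calculated against the compound-free control.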

human Lck enzyme = biological target: T3, human Lck enzyme (Homo sapiens, UniProt P06239); assay: Lck enzyme inhibitory activity (time-resolved fluorometry, biotinylated peptide phosphorylation); details: read-out: LCK_IC50
T3 construct: purchased Carna Biosciences, Inc. 08-170
T3 sequence (P06239 whole entry): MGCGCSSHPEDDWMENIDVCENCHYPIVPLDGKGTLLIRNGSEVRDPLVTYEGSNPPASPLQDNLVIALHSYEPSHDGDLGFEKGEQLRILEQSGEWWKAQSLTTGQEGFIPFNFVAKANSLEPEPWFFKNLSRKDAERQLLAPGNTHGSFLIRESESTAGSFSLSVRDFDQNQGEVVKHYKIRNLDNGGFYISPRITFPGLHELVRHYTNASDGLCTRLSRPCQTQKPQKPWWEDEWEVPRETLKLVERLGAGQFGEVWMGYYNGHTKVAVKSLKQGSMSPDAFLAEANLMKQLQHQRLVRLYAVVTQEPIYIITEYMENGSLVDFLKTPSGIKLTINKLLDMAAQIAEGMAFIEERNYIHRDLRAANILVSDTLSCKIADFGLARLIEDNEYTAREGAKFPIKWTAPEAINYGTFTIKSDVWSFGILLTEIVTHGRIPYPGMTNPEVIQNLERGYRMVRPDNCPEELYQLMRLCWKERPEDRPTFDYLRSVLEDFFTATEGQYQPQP
Outline: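 Readout pairs a europium cryptate-labelled anti-phosphotyrosine antibody with XL665-streptavidin, measured by time-resolved fluorescence. IC50 derived from percent inhibition against untreated controls.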

[1] = biotinylated peptide phosphorylation

T1 sequence (P07947 whole entry): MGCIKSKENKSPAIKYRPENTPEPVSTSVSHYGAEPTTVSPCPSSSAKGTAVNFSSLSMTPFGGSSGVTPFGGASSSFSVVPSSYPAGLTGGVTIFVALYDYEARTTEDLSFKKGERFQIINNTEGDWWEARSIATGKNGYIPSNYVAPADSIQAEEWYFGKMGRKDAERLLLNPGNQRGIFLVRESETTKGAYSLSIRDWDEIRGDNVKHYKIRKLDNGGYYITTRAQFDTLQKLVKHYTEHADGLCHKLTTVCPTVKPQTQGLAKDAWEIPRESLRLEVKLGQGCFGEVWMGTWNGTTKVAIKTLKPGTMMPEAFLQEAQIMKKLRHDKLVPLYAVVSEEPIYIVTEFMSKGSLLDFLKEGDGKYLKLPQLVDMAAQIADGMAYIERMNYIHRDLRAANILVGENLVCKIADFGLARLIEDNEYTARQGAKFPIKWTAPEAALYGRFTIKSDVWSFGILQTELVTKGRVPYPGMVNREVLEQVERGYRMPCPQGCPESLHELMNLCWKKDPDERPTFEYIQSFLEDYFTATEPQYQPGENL

`Cc1cc(Oc2ccccc2F)ccc1-n1ncc(C(=O)c2cc3cc(F)c(N4CCOC4=O)cc3[nH]2)c1N` [Example 5-1-095, 3-[2-[5-amino-1-[4-(2-fluorophenoxy)-2-methylphenyl]pyrazole-4-carbonyl]-5-fluoro-1H-indol-6-yl]-1,3-oxazolidin-2-one] was tested, and the IC50 (human Yes1 enzyme) was 0.87 nM, the IC50 (human Src enzyme) was 4.5 nM and the IC50 (human Lck enzyme) was 1.5 nM.
With `Cc1cc(Oc2c(F)cccc2F)ncc1-n1ncc(C(=O)c2cc3cc(C(C)C)c(NS(=O)(=O)C4CCCC4)cc3[nH]2)c1N` [Example 5-1-306, N-[2-[5-amino-1-[6-(2,6-difluorophenoxy)-4-methylpyridin-3-yl]pyrazole-4-carbonyl]-5-propan-2-yl-1H-indol-6-yl] cyclopentanesulfonamide] the IC50 (human Yes1 enzyme) was 23 nM, the IC50 (human Src enzyme) was 630 nM and the IC50 (human Lck enzyme) was 150 nM.
`Cc1cc2cc(C(=O)c3cnn(-c4cnc(Oc5ccccc5F)cc4C)c3N)[nH]c2cc1NS(=O)(=O)c1cncc(F)c1` [Example 5-1-494, N-[2-[5-amino-1-[6-(2-fluorophenoxy)-4-methylpyridin-3-yl]pyrazole-4-carbonyl]-5-methyl-1H-indol-6-yl]-5-fluoropyridine-3-sulfonamide] showed an IC50 (human Yes1 enzyme; [1]) of 3 nM, an IC50 (human Src enzyme; [1]) of 430 nM and an IC50 (human Lck enzyme; [1]) of 230 nM.
`Cc1cc2cc(C(=O)c3cnn(-c4c(C)cc(Oc5ccccc5F)cc4F)c3N)[nH]c2cc1NS(=O)(=O)CC(=O)N1CCCC1` [Example 5-1-110, N-[2-[5-amino-1-[2-fluoro-4-(2-fluorophenoxy)-6-methylphenyl]pyrazole-4-carbonyl]-5-methyl-1H-indol-6-yl]-2-oxo-2-pyrrolidin-1-ylethanesulfonamide] showed an IC50 (human Yes1 enzyme) of 7.7 nM, an IC50 (human Src enzyme) of 68 nM and an IC50 (human Lck enzyme) of 10 nM.
Work on `Cc1cc(Oc2ccccc2F)ncc1-n1ncc(C(=O)c2cc3cc(N4CCOCC4)c(NS(C)(=O)=O)cc3[nH]2)c1N` [Example 4-24-015, N-[2-[5-amino-1-[6-(2-fluorophenoxy)-4-methylpyridin-3-yl]pyrazole-4-carbonyl]-5-morpholin-4-yl-1H-indol-6-yl]methanesulfonamide] yielded an IC50 (human Yes1 enzyme; [1]) of 1.3 nM, an IC50 (human Src enzyme; [1]) of 77 nM and an IC50 (human Lck enzyme; [1]) of 16 nM.
Work on `COc1cc2cc(C(=O)c3cnn(-c4cnc(Oc5ccccc5F)cc4C)c3N)[nH]c2cc1NC(C)=O` [Example 4-11-001, N-{2-{5-amino-1-[6-(2-fluorophenoxy)-4-methylpyridin-3-yl]pyrazole-4-carbonyl}-5-methoxy-1H-indol-6-yl}acetamide] yielded an IC50 (human Yes1 enzyme; [1]) of 1.5 nM, an IC50 (human Src enzyme; [1]) of 33 nM and an IC50 (human Lck enzyme; [1]) of 5.6 nM.
In the case of `Cc1cc2cc(C(=O)c3cnn(-c4ccc(Oc5ccccc5F)cc4C)c3N)[nH]c2cc1N1C(=O)N[C@@H](C)C1=O` [Example 5-1-444, (5S)-3-[2-[5-amino-1-[4-(2-fluorophenoxy)-2-methylphenyl]pyrazole-4-carbonyl]-5-methyl-1H-indol-6-yl]-5-methylimidazolidine-2,4-dione], the IC50 (human Yes1 enzyme; [1]) is reported as 0.65 nM, the IC50 (human Src enzyme; [1]) is reported as 13 nM and the IC50 (human Lck enzyme; [1]) is reported as 3.9 nM.
With `Cc1cc(Oc2ccccc2F)cc(C)c1-n1ncc(C(=O)c2cc3cc(F)c(NS(=O)(=O)C4CC4)cc3[nH]2)c1N` [Example 4-2-042, N-[2-[5-amino-1-[4-(2-fluorophenoxy)-2,6-dimethylphenyl]pyrazole-4-carbonyl]-5-fluoro-1H-indol-6-yl]cyclopropanesulfonamide] the IC50 (human Yes1 enzyme; [1]) was 32 nM, the IC50 (human Src enzyme; [1]) was 840 nM and the IC50 (human Lck enzyme; [1]) was 370 nM.
In the case of `Cc1cc(Oc2ccccc2F)ccc1-n1ncc(C(=O)c2cc3cc(OCC(F)F)c(N4C(=O)[C@@H]5C[C@H](NS(=O)(=O)Cc6ccccc6)CN5C4=O)cc3[nH]2)c1N` [Example 5-1-275, N-[(6S,7aS)-2-[2-[5-amino-1-[4-(2-fluorophenoxy)-2-methylphenyl]pyrazole-4-carbonyl]-5-(2,2-difluoroethoxy)-1H-indol-6-yl]-1,3-dioxo-5,6,7,7a-tetrahydropyrrolo[1,2-c]imidazol-6-yl]-1-phenylmethanesulfonamide], the IC50 (human Yes1 enzyme) is reported as 0.64 nM, the IC50 (human Src enzyme) is reported as 19 nM and the IC50 (human Lck enzyme) is reported as 7 nM.
`Cc1cc(-n2ncc(C(=O)c3cc4cc(OC(F)F)c(NS(C)(=O)=O)cc4[nH]3)c2N)ccc1Oc1ccccc1F` [Example 5-1-167, N-[2-[5-amino-1-[4-(2-fluorophenoxy)-3-methylphenyl]pyrazole-4-carbonyl]-5-(difluoromethoxy)-1H-indol-6-yl] methanesulfonamide] showed an IC50 (human Yes1 enzyme) of 3.6 nM, an IC50 (human Src enzyme) of 2000 nM and an IC50 (human Lck enzyme) of 370 nM.
`Cc1cc(Oc2ccccc2F)ccc1-n1ncc(C(=O)c2cc3cc(OCC(F)F)c(N4C(=O)[C@@H]5C[C@H](NS(=O)(=O)c6ccc7ccccc7c6)CN5C4=O)cc3[nH]2)c1N` [Example 5-1-276, N-[(6S,7aS)-2-[2-[5-amino-1-[4-(2-fluorophenoxy)-2-methylphenyl]pyrazole-4-carbonyl]-5-(2,2-difluoroethoxy)-1H-indol-6-yl]-1,3-dioxo-5,6,7,7a-tetrahydropyrrolo[1,2-c]imidazol-6-yl]naphthalene-2-sulfonamide] was tested, and the IC50 (human Yes1 enzyme) was 2.2 nM, the IC50 (human Src enzyme) was 87 nM and the IC50 (human Lck enzyme) was 35 nM.
In the case of `Cc1cc2cc(C(=O)c3cnn(-c4cnc(Oc5ccccc5F)cc4C)c3N)[nH]c2cc1NS(=O)(=O)c1cccc(C#N)n1` [Example 5-1-479, N-[2-[5-amino-1-[6-(2-fluorophenoxy)-4-methylpyridin-3-yl]pyrazole-4-carbonyl]-5-methyl-1H-indol-6-yl]-6-cyanopyridine-2-sulfonamide], the IC50 (human Yes1 enzyme; [1]) is reported as 3.3 nM, the IC50 (human Src enzyme; [1]) is reported as 770 nM and the IC50 (human Lck enzyme; [1]) is reported as 170 nM.
Work on `Cc1cc2cc(C(=O)c3cnn(-c4cnc(Oc5c(F)cccc5F)cc4C)c3N)[nH]c2cc1N1C(=O)NC2(CCCCC2)C1=O` [Example 5-1-316, 3-[2-[5-amino-1-[6-(2,6-difluorophenoxy)-4-methylpyridin-3-yl]pyrazole-4-carbonyl]-5-methyl-1H-indol-6-yl]-1,3-diazaspiro[4.5] decane-2,4-dione] yielded an IC50 (human Yes1 enzyme) of 6.2 nM, an IC50 (human Src enzyme) of 170 nM and an IC50 (human Lck enzyme) of 29 nM.
In the case of `Cc1cc(Oc2ccccc2F)ccc1-n1ncc(C(=O)c2cc3cc(N4CCOCC4)c(N4CCOC4=O)cc3[nH]2)c1N` [Example 5-1-106, 3-[2-[5-amino-1-[4-(2-fluorophenoxy)-2-methylphenyl]pyrazole-4-carbonyl]-5-morpholin-4-yl-1H-indol-6-yl]-1,3-oxazolidin-2-one], the IC50 (human Yes1 enzyme) is reported as 0.42 nM, the IC50 (human Src enzyme) is reported as 2 nM and the IC50 (human Lck enzyme) is reported as 1.1 nM.
Compound `Cc1cc(Oc2ccccc2F)cc(F)c1-n1ncc(C(=O)c2cc3cc(OC(F)F)c(N4CCCC4=O)cc3[nH]2)c1N` [Example 4-25-015, 1-[2-[5-amino-1-[2-fluoro-4-(2-fluorophenoxy)-6-methylphenyl]pyrazole-4-carbonyl]-5-(difluoromethoxy)-1H-indol-6-yl]pyrrolidin-2-one] has an IC50 (human Yes1 enzyme; [1]) of 4.9 nM, an IC50 (human Src enzyme; [1]) of 44 nM and an IC50 (human Lck enzyme; [1]) of 8.2 nM.
`Cc1cc2cc(C(=O)c3cnn(-c4c(C)cc(Oc5ccccc5F)cc4F)c3N)[nH]c2cc1N1CCCS1(=O)=O` [Example 4-2-114, [5-amino-1-[2-fluoro-4-(2-fluorophenoxy)-6-methylphenyl]pyrazol-4-yl]-[6-(1,1-dioxo-1,2-thiazolidin-2-yl)-5-methyl-1H-indol-2-yl]methanone] was tested, and the IC50 (human Yes1 enzyme; [1]) was 5 nM, the IC50 (human Src enzyme; [1]) was 72 nM and the IC50 (human Lck enzyme; [1]) was 16 nM.
`Cc1cc(Oc2ccccc2F)ccc1-n1ncc(C(=O)c2cc3cc(OC(F)F)c(N4CC5(CCCC5)NS4(=O)=O)cc3[nH]2)c1N` [Example 5-1-423, [5-amino-1-[4-(2-fluorophenoxy)-2-methylphenyl]pyrazol-4-yl]-[5-(difluoromethoxy)-6-(2,2-dioxo-2λ6-thia-1,3-diazaspiro[4.4]nonan-3-yl)-1H-indol-2-yl]methanone] was tested, and the IC50 (human Yes1 enzyme; [1]) was 4 nM, the IC50 (human Src enzyme; [1]) was 190 nM and the IC50 (human Lck enzyme; [1]) was 61 nM.
`Cc1cc(Oc2ccccc2F)ccc1-n1ncc(C(=O)c2cc3cc(OCC(F)F)c(N4C(=O)NC(C)(C)C4=O)cc3[nH]2)c1N` [Example 4-23-033, 3-[2-[5-amino-1-[4-(2-fluorophenoxy)-2-methylphenyl]pyrazole-4-carbonyl]-5-(2,2-difluoroethoxy)-1H-indol-6-yl]-5,5-dimethylimidazolidine-2,4-dione] showed an IC50 (human Yes1 enzyme; [1]) of 0.5 nM, an IC50 (human Src enzyme; [1]) of 6.1 nM and an IC50 (human Lck enzyme; [1]) of 2.1 nM.
In the case of `Cc1cc2cc(C(=O)c3cnn(-c4ccc(Oc5ccccc5F)cc4C)c3N)[nH]c2cc1C1CCN(S(C)(=O)=O)CC1` [Example 5-1-086, [5-amino-1-[4-(2-fluorophenoxy)-2-methylphenyl]pyrazol-4-yl]-[5-methyl-6-(1-methylsulfonylpiperidin-4-yl)-1H-indol-2-yl] methanone], the IC50 (human Yes1 enzyme) is reported as 1.4 nM, the IC50 (human Src enzyme) is reported as 8.5 nM and the IC50 (human Lck enzyme) is reported as 2.8 nM.
Compound `Cc1cc(Oc2ccccc2)cc(F)c1-n1ncc(C(=O)c2cc3cc(F)c(NS(=O)(=O)C4CC4)cc3[nH]2)c1N` [Example 4-7-014, N-[2-[5-amino-1-(2-fluoro-6-methyl-4-phenoxyphenyl)pyrazole-4-carbonyl]-5-fluoro-1H-indol-6-yl]cyclopropanesulfonamide] has an IC50 (human Yes1 enzyme; [1]) of 4.9 nM, an IC50 (human Src enzyme; [1]) of 130 nM and an IC50 (human Lck enzyme; [1]) of 73 nM.
For `Cc1cc2cc(C(=O)c3cnn(-c4cnc(Oc5c(F)cccc5F)cc4C)c3N)[nH]c2cc1NS(=O)(=O)c1cncc(F)c1` [Example 5-1-546, N-[2-[5-amino-1-[6-(2,6-difluorophenoxy)-4-methylpyridin-3-yl]pyrazole-4-carbonyl]-5-methyl-1H-indol-6-yl]-5-fluoropyridine-3-sulfonamide], the IC50 (human Yes1 enzyme; [1]) was 6.1 nM, the IC50 (human Src enzyme; [1]) was 680 nM and the IC50 (human Lck enzyme; [1]) was 78 nM.
`Cc1cc(Oc2ccccc2F)ccc1-n1ncc(C(=O)c2cc3cc(OCCN4CCOCC4)c(NS(C)(=O)=O)cc3[nH]2)c1N` [Example 4-24-034, N-[2-[5-amino-1-[4-(2-fluorophenoxy)-2-methylphenyl]pyrazole-4-carbonyl]-5-(2-morpholin-4-ylethoxy)-1H-indol-6-yl]methanesulfonamide] was tested, and the IC50 (human Yes1 enzyme; [1]) was 0.39 nM, the IC50 (human Src enzyme; [1]) was 8.1 nM and the IC50 (human Lck enzyme; [1]) was 4.7 nM.
